Measurements reported in publication PMC7377239, “Cardiovascular Effects of Polychlorinated Biphenyls and Their Major Metabolites” (Environmental Health Perspectives, 2020).
Structures can show the parent of a compound that is named as a salt. Where two headings read alike, the source gives them in different places.

System: iCell cardiomyocytes (human iPSC-derived cardiomyocytes)
Experiment: High-content imaging of cytotoxicity and mitochondrial integrity in iPSC-CMs
Assay type: cell-based
Conditions: Homo sapiens, Cardiomyocyte, cardiomyocytes (cm)
Outline: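 Human iPSC-derived cardiomyocytes were seeded on gelatin-coated 384-well plates at 5,000 cells per well and maintained for 12 d. Test chemicals were added as 10μL of 5× solutions to final concentrations of 0.01 to 100μM. Cells were stained with Hoechst 33342 and MitoTracker™ Orange, fixed in formaldehyde, and imaged by confocal high-content microscopy at 10× magnification.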

[1] = 1.5 h, cam, 90 min, read-out: POD cm.cam.90min
[2] = 1.5 h, mii, 90 min, read-out: POD cm.mii.90min
[3] = 1.5 h, mito, 90 min, read-out: POD cm.mito.90min
[4] = 1.5 h, tc, 90 min, read-out: POD cm.tc.90min
[5] = 24 h, cam, 24 hrs, read-out: POD cm.cam.24hrs
[6] = 24 h, mii, 24 hrs, read-out: POD cm.mii.24hrs
[7] = 24 h, mito, 24 hrs, read-out: POD cm.mito.24hrs
[8] = 24 h, tc, 24 hrs, read-out: POD cm.tc.24hrs

SMILES	minimal effective concentration [1] [µM]	minimal effective concentration [2] [µM]	minimal effective concentration [3] [µM]	minimal effective concentration [4] [µM]	minimal effective concentration [5] [µM]	minimal effective concentration [6] [µM]	minimal effective concentration [7] [µM]	minimal effective concentration [8] [µM]
Oc1cccc(-c2ccc(Cl)cc2)c1 [3'-OH-PCB 3]	16	35	15	14.8	14.1	23	14	15.6
O=S(=O)(O)Oc1cccc(-c2ccc(Cl)cc2)c1 [3'-PCB 3 sulfate]	100	89.9	100	100	100	100	100	100
